Data taken from PMC9851200, “Multiparameter phenotypic screening for endogenous TFEB and TFE3 translocation identifies novel chemical series modulating lysosome function” (Autophagy, 2022).
Entries after “also recorded” stand apart in the source; their conditions may differ. Where two headings read alike, the source gives them in different places. Blank lines part the entries; values can stand above or below the compound they belong to.

What was measured:
[1] = test system: SH-SY5Y cells
[2] = test system: endogenous TFE3; assay: TFE3 nuclear translocation, immunocytochemistry high-content imaging; format: cell-based; conditions: for TFE3 %: PKIS2 primary screening; for Best-Fit Values Span: TFE3 assay concentration response; for Best-Fit Values Span / EC50: 24 h; for EC50: TFE3 assay, read-out: Best-Fit Values EC50 (converted); for Summary: activity in TFE3 assays compared with original NK-140, OT activity
[3] = test system: SH-SY5Y cells; assay: AK (adenylate kinase) release ToxiLight cytotoxicity assay; conditions: for Cellular toxicity (AK release and nuclear count, in words): SH-SY5Y, 24 h treatment; for AK: PKIS2 primary screening
[4] = test system: endogenous TFEB; assay: TFEB nuclear translocation, immunocytochemistry high-content imaging; format: cell-based; conditions: for TFEB %: PKIS2 primary screening
[5] = test system: SH-SY5Y cells; assay: Nuclear count from microscopy images (cellular growth and toxicity); conditions: PKIS2 primary screening
[6] = PKIS2 primary screening, DQ Red BSA intensity
[7] = PKIS2 primary screening, DQ Red BSA spot count
[8] = SH-SY5Y, concentration-dependent

Compound: CC(=O)Nc1ccc(C(=O)Nc2ccccc2N)cc1 [CI-994, Tacedinaline, reference compound]
DQ Red BSA signal (in words) ([1]; SH-SY5Y, 24 h treatment): robustly increase DQ Red BSA puncta signal
DQ Red BSA spot count / active lysosome count (in words) ([1]; SH-SY5Y, 24 h treatment): increases

Compound: O=C1NCCCc2c1oc1ccc(O)cc21 [CID755673, reference compound]
TFE3 translocation (in words) [2]: no TFEB and TFE3 translocation; also recorded: no effect across these assays
DQ Red BSA signal (in words) [1]: no TFEB and TFE3 translocation, alteration in DQ Red BSA signal or toxicity; also recorded: no effect across these assays
Cellular toxicity (AK release and nuclear count, in words) [3]: no TFEB and TFE3 translocation, alteration in DQ Red BSA signal or toxicity; also recorded: no effect across these assays
TFEB translocation (in words) [4]: no TFEB and TFE3 translocation; also recorded: no effect across these assays

Compound: O=C(Nc1ccc(CN2CCOCC2)cc1)c1ccc(-c2cccc(Cl)c2)o1 [CID2011756, reference compound]
TFE3 translocation (in words) [2]: some TFEB and TFE3 translocation only at 20 µM; also recorded: induced TFEB and TFE3 translocation only alongside marked lysosomal and cellular toxicity at 20 µM
DQ Red BSA signal (in words) [1]: some reduction of DQ Red BSA signal
Lysosomal toxicity (in words) ([1]; human): marked lysosomal and cellular toxicity at 20 µM
Cellular toxicity (AK release and nuclear count, in words) [3]: marked lysosomal and cellular toxicity at 20 µM
TFEB translocation (in words) [4]: some TFEB and TFE3 translocation only at 20 µM; also recorded: induced TFEB and TFE3 translocation only alongside marked lysosomal and cellular toxicity at 20 µM

Compound: Clc1cc(Cl)cc(Nc2ccnc(Nc3cc(Cl)cc(Cl)c3)n2)c1 [GSK175726]
TFE3 % [2]: 10.08%
DQ Intensity [1, 6]: 98.51
DQ Spot [1, 7]: 117.48
AK [3]: 105.62
TFEB % [4]: 3.77%
Nuclear Count [5]: 91.70

Compound: Cc1ccc(S(=O)(=O)Nc2ccc(Nc3nccc(Nc4cccc5[nH]ncc45)n3)cc2)cc1 [GSK581271]
TFE3 % [2]: 6.80%
DQ Intensity [1, 6]: 132.42
DQ Spot [1, 7]: 120.36
AK [3]: 89.43
TFEB % [4]: 3.93%
Nuclear Count [5]: 129.24

Compound: Nc1nccc(-c2ccc3c(N)n[nH]c3c2)n1 [GSK1034945]
TFE3 % [2]: 14.89%
DQ Intensity [1, 6]: 84.11
DQ Spot [1, 7]: 101.09
AK [3]: 117.83
TFEB % [4]: 3.25%
Nuclear Count [5]: 141.53

Compound: COc1ccc(Nc2nccc(-c3ccc(NC(=O)c4cc5cc(F)ccc5[nH]4)cc3)n2)cc1 [GSK1229496]
TFE3 % [2]: 10.21%
DQ Intensity [1, 6]: 79.73
DQ Spot [1, 7]: 89.01
AK [3]: 76.92
TFEB % [4]: 5.47%
Nuclear Count [5]: 129.71

Compound: COc1ccc(Nc2nccc(-c3cccc(NC(=O)c4cc5cc(F)ccc5[nH]4)c3)n2)cc1 [GSK1229782]
TFE3 % [2]: 14.29%
DQ Intensity [1, 6]: 93.16
DQ Spot [1, 7]: 110.99
AK [3]: 91.24
TFEB % [4]: 2.71%
Nuclear Count [5]: 89.95

Compound: COc1ccc(CNC(=O)NC2CCN(c3ccnc(Nc4ccc(F)cc4)n3)C2)cc1 (stereo not drawn) [GSK1379706]
TFE3 % [2]: 11.64%
DQ Intensity [1, 6]: 67.21
DQ Spot [1, 7]: 81.58
AK [3]: 89.40
TFEB % [4]: 2.94%
Nuclear Count [5]: 119.74

Compound: N#Cc1cccc(C(=O)NC2CCN(c3ccnc(Nc4ccc(F)cc4)n3)C2)c1 (stereo not drawn) [GSK1379708]
TFE3 % [2]: 11.35%
DQ Intensity [1, 6]: 97.27
DQ Spot [1, 7]: 112.33
AK [3]: 99.36
TFEB % [4]: 6.02%
Nuclear Count [5]: 107.86

Compound: CC(=O)c1cccc(NC(=O)NC2CCN(c3ccnc(Nc4ccc(F)cc4)n3)C2)c1 (stereo not drawn) [GSK1379710]
TFE3 % [2]: 16.11%
DQ Intensity [1, 6]: 124.22
DQ Spot [1, 7]: 115.02
AK [3]: 70.15
TFEB % [4]: 4.15%
Nuclear Count [5]: 98.98

Compound: COC(=O)C(NC(=O)NC1CCN(c2ccnc(Nc3ccc(F)cc3)n2)C1)c1ccccc1 (stereo not drawn) [GSK1379712]
TFE3 % [2]: 6.91%
DQ Intensity [1, 6]: 132.02
DQ Spot [1, 7]: 102.90
AK [3]: 111.30
TFEB % [4]: 9.98%
Nuclear Count [5]: 98.27

Compound: CC(C(=O)NC1CCN(c2ccnc(Nc3ccc(F)cc3)n2)C1)c1ccc(Cl)cc1 (stereo not drawn) [GSK1379713]
TFE3 % [2]: 10.33%
DQ Intensity [1, 6]: 153.18
DQ Spot [1, 7]: 124.60
AK [3]: 94.01
TFEB % [4]: 6.54%
Nuclear Count [5]: 84.41

Compound: COC(=O)C(Cc1ccccc1)NC(=O)NC1CCN(c2ccnc(Nc3ccc(F)cc3)n2)C1 (stereo not drawn) [GSK1379714]
TFE3 % [2]: 7.75%
DQ Intensity [1, 6]: 97.62
DQ Spot [1, 7]: 115.84
AK [3]: 95.90
TFEB % [4]: 4.19%
Nuclear Count [5]: 110.40

Compound: CCCc1ccc(S(=O)(=O)NC2CCN(c3ccnc(Nc4ccc(F)cc4)n3)C2)cc1 (stereo not drawn) [GSK1379715]
TFE3 % [2]: 11.31%
DQ Intensity [1, 6]: 80.29
DQ Spot [1, 7]: 105.29
AK [3]: 100.57
TFEB % [4]: 6.97%
Nuclear Count [5]: 97.10

Compound: O=C(NC1CCN(c2ccnc(Nc3ccc(F)cc3)n2)C1)c1cc2ccccc2s1 (stereo not drawn) [GSK1379716]
TFE3 % [2]: 24.94%
DQ Intensity [1, 6]: 72.95
DQ Spot [1, 7]: 96.75
AK [3]: 79.19
TFEB % [4]: 2.96%
Nuclear Count [5]: 86.00

Compound: Cn1cncc1C(=O)NC1CCN(c2ccnc(Nc3ccc(F)cc3)n2)C1 (stereo not drawn) [GSK1379717]
TFE3 % [2]: 10.47%
DQ Intensity [1, 6]: 84.19
DQ Spot [1, 7]: 97.80
AK [3]: 113.98
TFEB % [4]: 3.86%
Nuclear Count [5]: 85.90

Compound: Cc1ccc(C)c(NC(=O)NC2CCN(c3ccnc(Nc4ccc(F)cc4)n3)C2)c1 (stereo not drawn) [GSK1379720]
TFE3 % [2]: 10.49%
DQ Intensity [1, 6]: 115.10
DQ Spot [1, 7]: 109.75
AK [3]: 98.80
TFEB % [4]: 6.06%
Nuclear Count [5]: 92.38

Compound: COc1cccc(NC(=O)NC2CCN(c3ccnc(Nc4ccc(F)cc4)n3)C2)c1 (stereo not drawn) [GSK1379721]
TFE3 % [2]: 13.36%
DQ Intensity [1, 6]: 94.47
DQ Spot [1, 7]: 102.23
AK [3]: 103.41
TFEB % [4]: 3.00%
Nuclear Count [5]: 112.40

Compound: O=C(Nc1ccccc1F)NC1CCN(c2ccnc(Nc3ccc(F)cc3)n2)C1 (stereo not drawn) [GSK1379722]
TFE3 % [2]: 10.71%
DQ Intensity [1, 6]: 129.34
DQ Spot [1, 7]: 121.71
AK [3]: 94.79
TFEB % [4]: 14.40%
Nuclear Count [5]: 114.62

Compound: COc1cccc(CNC(=O)NC2CCN(c3ccnc(Nc4ccc(F)cc4)n3)C2)c1 (stereo not drawn) [GSK1379723]
TFE3 % [2]: 22.56%
DQ Intensity [1, 6]: 104.41
DQ Spot [1, 7]: 106.33
AK [3]: 98.00
TFEB % [4]: 8.63%
Nuclear Count [5]: 83.60

Compound: O=C(Nc1ccc2c(c1)OCO2)NC1CCN(c2ccnc(Nc3ccc(F)cc3)n2)C1 (stereo not drawn) [GSK1379724]
TFE3 % [2]: 7.39%
DQ Intensity [1, 6]: 90.09
DQ Spot [1, 7]: 99.32
AK [3]: 104.22
TFEB % [4]: 3.86%
Nuclear Count [5]: 89.10

Compound: COC(=O)c1cccc(NC(=O)NC2CCN(c3ccnc(Nc4ccc(F)cc4)n3)C2)c1 (stereo not drawn) [GSK1379725]
TFE3 % [2]: 21.26%
DQ Intensity [1, 6]: 80.47
DQ Spot [1, 7]: 88.32
AK [3]: 90.74
TFEB % [4]: 7.57%
Nuclear Count [5]: 95.32

Compound: COc1ccc(CNC(=O)NC2CCN(c3ccnc(Nc4ccc(OC)cc4)n3)C2)cc1 (stereo not drawn) [GSK1379727]
TFE3 % [2]: 11.01%
DQ Intensity [1, 6]: 79.60
DQ Spot [1, 7]: 81.20
AK [3]: 96.08
TFEB % [4]: 4.74%
Nuclear Count [5]: 118.16

Compound: COc1ccc(Nc2nccc(N3CCC(NS(=O)(=O)c4ccc(NC(C)=O)cc4)C3)n2)cc1 (stereo not drawn) [GSK1379729]
TFE3 % [2]: 16.51%
DQ Intensity [1, 6]: 76.81
DQ Spot [1, 7]: 100.23
AK [3]: 69.35
TFEB % [4]: 5.22%
Nuclear Count [5]: 90.61

Compound: COc1ccc(Nc2nccc(N3CCC(NC(=O)c4cccc(C#N)c4)C3)n2)cc1 (stereo not drawn) [GSK1379730]
TFE3 % [2]: 13.54%
DQ Intensity [1, 6]: 67.56
DQ Spot [1, 7]: 85.55
AK [3]: 125.87
TFEB % [4]: 9.20%
Nuclear Count [5]: 108.33

EC50 ([2]; SH-SY5Y, second EC50 of biphasic/bell-shaped fit or OT (off-target) activity, unit inferred): 1.92 µM
Compound: Cc1cccc(-c2nc(Nc3ccc4ncn(C)c4c3)c3ccccc3n2)n1 [NK173]
Best-Fit Values Span ([2]; SH-SY5Y): 80.89
Summary [2]: Only OT activity

EC50 ([2]; SH-SY5Y, µM): 0.42 µM
Compound: Cc1cccc(-c2nc(Nc3ccc4[nH]ccc4c3)c3ccccc3n2)n1 [NK218]
Best-Fit Values Span ([2]; SH-SY5Y): 20.78
Summary [2]: More Potent

Compound: CC(C)c1nc(-c2cccc(NS(=O)(=O)c3ccccc3)c2)c(-c2ccnc(Nc3ccc4c(c3)CN(C)CC4)n2)s1 [UNC10225068A]
TFE3 % [2]: 63.29%
DQ Intensity ([1]; PKIS2 primary screening): 3.98
DQ Spot ([1]; PKIS2 primary screening): 39.66
AK [3]: 114.97
Nuclear Count [5]: 76.87

Compound: Cc1cnc(N)c(/C=C/c2cncc(C(=O)NCCc3ccc(Cl)cc3Cl)c2)c1.Cl [UNC10225238A]
DQ Intensity [1, 6]: 95.52
DQ Spot [1, 7]: 99.30

Compound: C[C@@H](Oc1cc(-n2cnc3cc(-c4cnn(C)c4)ccc32)sc1C(N)=O)c1ccccc1Cl [UNC10225416A]
TFE3 % [2]: 8.07%
DQ Intensity [1]: 219.18
DQ Spot [1]: 124.35
AK [3]: 104.83
TFEB % [4]: 18.53%

Compound: CCN(CC)CCCC(C)Nc1ccnc2cc(Cl)ccc12 (stereo not drawn) [chloroquine, reference compound]
TFE3 translocation from the cytoplasm to the nucleus (% nTFE3) [2, 8]: > 80%
DQ Red BSA signal (in words) ([1]; SH-SY5Y, 24 h treatment): greatly reduced
DQ Red BSA spot count / active lysosome count (in words) ([1]; SH-SY5Y, 24 h treatment): reduces
TFEB translocation from the cytoplasm to the nucleus (% nTFEB) [4, 8]: > 80%
